Laboratory results published in patent EP4011354A1, “NEW COSMETICS SOLVENTS BASED ON TWO DIFFERENT COMPONENTS” (priority 2020, dated 2022).
Values after ≈ are worked out from the molar mass of the structure shown. Like-named read-outs stand apart in the source and are kept apart here.

Key:
[1] = Solubility of actives in water and in eutectic solvents; assay type: physicochemical; details: for solubility: water
From the text: Following is shown some examples for actives solubilization: • Dihydromyricetin • ∘ Solubility in Water 0.09% wt. • ∘ Solubility in Betaine:Urea 2:3 > 0.5% wt • ∘ Solubility in Betaine:Glucose 1:1 > 0.5% wt • ∘ Solubility in Betaine:Malic Acid 1:1 > 0.5% wt • ∘ Solubility in Proline:Sorbitol 1:1 > 0.5% wt • ∘ • Folic Acid • ∘ Solubility in Water 0.00016% wt. • ∘ Solubility in Betaine:Glycerol 1:3 > 1% wt • Thiamidol • ∘ Solubility in Water 0.017% wt. • ∘ Solubility in Betaine:Glycerol 1:3 > 2% wt

[2] = Liberation of actives and dermal penetration (pig-skin penetration test); details: 0,5% solution in betaine : malic acid (1:1 + 20% water; NADES)
Description: Actives liberation and dermal penetration behavior were evaluated for a 0,5% caffeine solution in an inventive eutectic solvent, betaine : malic acid (1:1 + 20% water; NADES).

[3] = In vivo sweat reduction test; details: Betaine-Glycerine (molar ratios 1:3), 10,5 wt.% calcium lactate, 37,5 wt.% water (figure 2)
[4] = Stability of 5 % vitamin C solutions in eutectic solvents versus water; assay type: physicochemical; details: 40 degrees, after 16 weeks

O=C1c2c(O)cc(O)cc2O[C@H](c2cc(O)c(O)c(O)c2)[C@H]1O [Dihydromyricetin]
Solubility in Betaine:Glucose 1:1 [1]: > 0.5 % wt
Solubility in Betaine:Malic Acid 1:1 [1]: > 0.5 % wt
Solubility in Betaine:Urea 2:3 [1]: > 0.5 % wt
Solubility in Proline:Sorbitol 1:1 [1]: > 0.5 % wt
solubility [1]: 900 µg/mL (≈ 2810 µM)

Nc1nc2ncc(CNc3ccc(C(=O)N[C@@H](CCC(=O)O)C(=O)O)cc3)nc2c(=O)[nH]1 [Folic Acid]
Solubility in Betaine:Glycerol 1:3 [1]: > 1 % wt
solubility ([1]; read-out: Solubility in Water): 1.6 µg/mL (≈ 3.62 µM)

CC(C)C(=O)Nc1nc(-c2ccc(O)cc2O)cs1 [Thiamidol, Isobutylamido Thiazolyl Resorcinol]
Solubility in Betaine:Glycerol 1:3 [1]: > 2 % wt
solubility ([1]; read-out: Solubility in Water): 170 µg/mL (≈ 611 µM)

Cn1c(=O)c2c(ncn2C)n(C)c1=O [caffeine]
dermal absorption ([2]; compared to the water solution): lower
liberation over time ([2]; compared to the water solution (figure 4)): surprisingly lower

CC(O)C(=O)O (centres unmarked) [calcium lactate]
sweat reduction [3]: sweat reduction

O=C1O[C@H]([C@@H](O)CO)C(O)=C1O [vitamin C, ascorbic acid]
remaining at 2688 h ([4]; in the eutectic solvents (table 1, B-F), read-out: active still intact): ≤ 82%
remaining at 2688 h ([4]; water, aqueous solution, read-out: initial vitamin C still measurable): 10%
